Where a name gives a salt, the structure may show the parent alone.
Columns and labels:
ovarian cancer = conditions: administration to tumor-bearing mice; cited from earlier work
5-HT1A receptors = biological target: T1, 5-HT1A receptors (Homo sapiens, UniProt P08908); conditions: cited from earlier work
T1 sequence (P08908 1-422): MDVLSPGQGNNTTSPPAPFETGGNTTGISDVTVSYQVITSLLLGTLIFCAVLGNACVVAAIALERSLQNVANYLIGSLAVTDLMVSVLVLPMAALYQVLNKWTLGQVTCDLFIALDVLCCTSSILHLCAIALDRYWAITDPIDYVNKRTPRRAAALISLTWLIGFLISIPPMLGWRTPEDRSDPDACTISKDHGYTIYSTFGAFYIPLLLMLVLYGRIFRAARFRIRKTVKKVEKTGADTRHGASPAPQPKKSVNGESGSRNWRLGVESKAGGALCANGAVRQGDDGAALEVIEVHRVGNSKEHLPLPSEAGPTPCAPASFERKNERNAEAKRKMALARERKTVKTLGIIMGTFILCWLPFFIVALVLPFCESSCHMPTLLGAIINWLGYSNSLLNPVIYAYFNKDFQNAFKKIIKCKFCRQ

5-HT2A = 5-HT2A (Homo sapiens, UniProt P28223); conditions: cited from earlier work
Chain of 5-HT2A (P28223 whole entry): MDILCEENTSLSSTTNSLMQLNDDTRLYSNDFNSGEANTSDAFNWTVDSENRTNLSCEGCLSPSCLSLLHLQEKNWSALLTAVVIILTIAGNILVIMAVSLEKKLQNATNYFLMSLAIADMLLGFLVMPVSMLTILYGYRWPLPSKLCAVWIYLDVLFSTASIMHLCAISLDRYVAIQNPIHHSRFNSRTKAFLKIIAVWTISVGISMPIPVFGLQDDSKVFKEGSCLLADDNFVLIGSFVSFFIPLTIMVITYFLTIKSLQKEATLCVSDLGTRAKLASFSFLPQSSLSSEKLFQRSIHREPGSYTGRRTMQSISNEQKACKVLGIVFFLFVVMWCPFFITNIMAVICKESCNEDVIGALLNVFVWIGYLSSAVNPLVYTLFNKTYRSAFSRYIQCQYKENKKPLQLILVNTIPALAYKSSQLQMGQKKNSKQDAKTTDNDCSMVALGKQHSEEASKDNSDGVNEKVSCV

Raji cells = test: CAR-T cell killing of luciferase-expressing Raji cells after pretreatment of CAR-T cells with serotonergic agonist; assay type: cell-based, human; conditions: for enhancement of killing of Raji cells: CD19 CAR-T cells preincubated one hour with 5×10^−5, 1×10^−4 or 2×10^−4 M agonist, washed, co-cultured 4 hours, versus unstimulated CAR-T cells; for level of killing of Raji cells: E:T ratio 3:1, agonist-stimulated CAR-T cells, 1% Triton-X100 control set as 100% killing
Method: Pergolide mesylate and 8-OH-DPAT (Sigma) were each dissolved in dimethyl sulfoxide (DMSO) to 2×10^−2 M. The solutions were subsequently diluted in Basal CAR-T medium (ProMab (Richmond, CA)) supplemented with 10% fetal bovine serum, 100U/mL sodium penicillin G (Rafa, Jerusalem) and 1000U/mL streptomycin (Rafa, Jerusalem), in a serial manner, to the indicated final concentrations. CD19 scFv-4-1BB-CD3ζ CAR-T cells (CAT. PM-CAR1002-1M) purchased from ProMab (Richmond, CA) were incubated with the diluted pergolide mesylate or 8-OH-DPAT for one hour, at 37° C. and 5% C02. The cells were pelleted by centrifugation and washed with regular cell growth medium to remove pergolide mesylate and 8-OH-DPAT prior to co-culture with target luciferase Raji cells.
Luciferase Raji cells stably expressing luciferase (Raji/NF-kB Reporter (Luc) stable cell line Cat. CL-1280) were purchased from FenicsBio (Halethorpe, MD) and grown in RPMI medium (Gibco Cat. 21875-034) supplemented with 10% fetal bovine serum, 100U/mL sodium penicillin G (Rafa, Jerusalem) and 1000 U/mL streptomycin (Rafa, Jerusalem), at 37° C. and 5% C02.
Target 2.5×10^3 Raji-luc cells were cultured, at 37° C. and 5% CO2, in each well of 96-well plates, either in medium, medium containing 1% Triton-X100 (Sigma), or with effector CAR-T cells, at an effector:target cell ratio of 0.5:1, 1:1, or 3:1 for 4 hours. Four replicate wells were prepared for each type of sample. Following the incubation period, the cells were incubated with 50 μL of reconstituted reagent (Bright-Glo Luciferase Assay System, E2620) for 2 min to detect the fluorescence intensity (FLUOstar OMEGA). The fluorescence intensity of the 1% Triton-X100 control was set as 100% killing.

Row | SMILES | time to disease progression (ovarian cancer) | tumor weight (ovarian cancer) | enhancement of killing of Raji cells (Raji cells) | level of killing of Raji cells (Raji cells) | also measured
1 | NCCc1c[nH]c2ccc(O)cc12 [serotonin, 5-hydroxytryptamine] | decreased | increased | – | – | –
2 | CN[C@H]1CC[C@@H](c2ccc(Cl)c(Cl)c2)c2ccccc21 [sertraline] | decreased | increased | – | – | –
3 | CN(C)CCc1c[nH]c2cccc(OP(=O)(O)O)c12 [psilocybin] | – | – | – | – | Ki (5-HT1A receptors): 190 nM; Ki (5-HT2A): 6 nM
4 | CCCN(CCC)C1CCc2cccc(O)c2C1 (stereo not shown) [8-OH-DPAT, 8-hydroxy-2-(di-n-propylamino)tetralin] | – | – | 2-3 fold | approximately 100% | –
5 | CCCN1C[C@H](CSC)C[C@@H]2c3cccc4[nH]cc(c34)C[C@H]21 [pergolide mesylate] | – | – | 2-3 fold | approximately 100% | –
